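Five compound concentrations were applied to cells in 96-well plates for 48 hours; endpoints were derived by simple linear interpolation of the resulting dose-response curve. Abbreviation: GI50, concentration required for 50% inhibition of growth. TGI: total growth inhibition.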
How the values were obtained:
Test in all cases: NCI-60 cell line screen, 48 h
[1] = tested on: A498 renal
[2] = tested on: CAKI-1 renal
[3] = tested on: HOP-62 NSCLC
[4] = tested on: HT29 colon
[5] = tested on: MCF7 breast
[6] = tested on: NCI-H23 lung
[7] = tested on: OVCAR-8 ovarian
[8] = tested on: SN12C renal
[9] = tested on: UO-31 renal
[10] = tested on: MOLT-4 leukemia

SMILES | GI50 [1] [µM] | TGI [1] [µM] | GI50 [2] [µM] | TGI [2] [µM] | GI50 [3] [µM] | TGI [3] [µM] | GI50 [4] [µM] | TGI [4] [µM] | GI50 [5] [µM] | TGI [5] [µM] | GI50 [6] [µM] | TGI [6] [µM] | GI50 [7] [µM] | TGI [7] [µM] | GI50 [8] [µM] | TGI [8] [µM] | GI50 [9] [µM] | TGI [9] [µM] | TGI [10] [µM] | GI50 [10] [µM]
CNS(=O)(=O)OCC1OC(n2cnc3c(N)ncnc32)C(O)C1O (centres undefined) | > 100 | > 100 | > 100 | > 100 | > 100 | > 100 | > 100 | > 100 | > 100 | > 100 | > 100 | > 100 | > 100 | > 100 | > 100 | > 100 | > 100 | > 100 | – | –
CC(=O)NNc1nc(C)c(C(=O)NNC(=O)C(=O)Nc2ccc([N+](=O)[O-])cc2C#N)s1 | – | > 100 | – | – | – | > 100 | – | > 100 | – | – | – | > 100 | – | > 100 | – | > 100 | – | > 100 | > 100 | –
Cc1cc(=O)[nH]c(CNC(=O)c2cccc(C(=O)NCc3cc(=O)[nH]c(C)n3)c2)n1 | – | > 100 | – | – | – | > 100 | – | > 100 | – | – | – | > 100 | – | > 100 | – | > 100 | – | > 100 | > 100 | –
CCOC(=O)C1([Se]c2ccccc2)CCCC1=O (centres undefined) | – | > 100 | – | > 100 | – | > 100 | – | > 100 | – | – | – | 33.4 | – | 30.5 | – | 30.5 | – | 51.6 | 57.1 | –
Cn1c(=O)c2[nH]cnc2n(CC(N)=O)c1=O | – | > 100 | – | > 100 | – | > 100 | – | > 100 | – | – | – | > 100 | – | > 100 | – | > 100 | – | > 100 | > 100 | –
CC1=C(C)C2(O)C(=C(C)C1=O)/C(=C(/O)c1ccccc1)c1nc3ccccc3n12 (centres undefined) | 23.7 | 45.4 | 17.3 | 55.9 | 21.9 | 48.7 | 32.5 | > 100 | – | – | 15 | 29.9 | 18 | 41 | 19.3 | 34.6 | 25.6 | > 100 | 72.3 | 24.6
COc1cc2c(cc1C1=NC(C)(C)CO1)OCO2 | – | – | – | > 100 | – | > 100 | – | > 100 | – | – | – | > 100 | – | > 100 | – | > 100 | – | > 100 | > 100 | –
CN(/N=C/c1cccc2cccnc12)c1c([N+](=O)[O-])cc([N+](=O)[O-])cc1[N+](=O)[O-] | – | > 100 | – | > 100 | – | > 100 | – | > 100 | – | – | – | > 100 | – | > 100 | – | > 100 | – | – | > 100 | –
c1ccc(P(=C2c3ccccc3-c3ccccc32)(c2ccccc2)c2ccccc2)cc1 | – | – | – | > 100 | – | 8.17 | – | 10.4 | – | – | – | 9.97 | – | 12.7 | – | 10.9 | – | 70.7 | – | –
CCn1c2c(c3ccccc31)C(c1ccccc1)CC1C(=O)N(c3ccccc3)C(=O)C21 (centres undefined) | – | 30.6 | – | > 100 | – | > 100 | – | – | – | – | – | > 100 | – | > 100 | – | > 100 | – | > 100 | > 100 | –
Cc1cccc(C)c1Nc1nc(C)c(C(=O)CC(=O)C(=O)Nc2c(C(C)C)cccc2C(C)C)s1 | – | – | – | > 100 | – | > 100 | – | > 100 | – | > 100 | – | > 100 | – | > 100 | – | > 100 | – | > 100 | > 100 | –
CCN1C[C@]2(COC)[C@H](O)C[C@H](OC)[C@]34C1[C@H]([C@H](OC)[C@H]23)[C@]1(OC(C)=O)[C@H]2[C@@H](OC(=O)c3ccccc3)[C@](O)(C[C@H]24)[C@@H](OC)[C@@H]1O | – | > 100 | – | > 100 | – | – | – | > 100 | – | > 100 | – | > 100 | – | > 100 | – | > 100 | – | > 100 | – | –
CCCCCCCC(=O)OCC(=O)[C@]1(O)Cc2c(O)c3c(c(O)c2[C@@H](OC2CC(N)C(O)C(C)O2)C1)C(=O)c1c(OC)cccc1C3=O (some centres undefined) | 0.215 | 0.951 | 0.558 | 2.43 | 0.162 | 1.74 | – | – | – | 0.417 | 0.0552 | 0.526 | – | – | – | – | – | – | – | –
O=C(c1ccccc1)n1c(-c2ccccc2)cs/c1=N\S(=O)(=O)c1ccc(N2N=C3c4ccccc4CC3C2c2cccs2)cc1 (centres undefined) | – | – | 38 | > 100 | 23.7 | 57.1 | 73.7 | > 100 | > 100 | > 100 | 13 | 39.4 | 42.9 | > 100 | 44.4 | > 100 | 98.1 | > 100 | 21.2 | 0.305
COc1cc2c(=O)n(CCN(C)C)c3c4cc5c(cc4ccc3c2cc1OC)OCO5 | 0.0417 | 0.603 | – | – | 0.193 | 1.88 | 0.178 | 5.43 | 0.102 | 6.16 | 0.212 | 1.38 | 0.478 | > 50 | 0.226 | > 50 | 0.119 | 0.48 | 0.648 | 0.127
CCOC(=O)/C=C/C(=O)[C@H](CC(C)C)NC(=O)[C@H](Cc1ccccc1)NC(=O)OCc1ccccc1 | – | – | 8.82 | 21.7 | 14.4 | 29.6 | 5.44 | 38.6 | 1.73 | 4.8 | 11.3 | 32.8 | 18.4 | 60.4 | – | – | 1.78 | 3.66 | 9.25 | 2.42
C#CC1(O)CCC2[C@@H]3CCc4cc(Oc5nc(F)nc(-c6c7ccccc7cn6C)n5)ccc4C3CC[C@@]21C (some centres undefined) | – | > 100 | – | > 100 | – | > 100 | – | > 100 | – | – | – | > 100 | – | > 100 | – | > 100 | – | > 100 | > 100 | –
COC1C2c3cc4c(cc3CC(C#N)(c3ccccc32)N1C(=O)c1ccccc1)OCO4 (centres undefined) | – | – | – | – | – | > 100 | – | > 100 | – | – | – | > 100 | – | > 100 | – | > 100 | – | > 100 | > 100 | –
OC12c3ccccc3C3CCC4(OCCO4)C3C1c1ccccc12 (centres undefined) | – | > 100 | – | > 100 | – | > 100 | – | > 100 | – | – | – | > 100 | – | > 100 | – | > 100 | – | > 100 | > 100 | –

Reference: PubChem BioAssay (NCI)
